The text below walks through data of PMC12263422, “Cryo-EM structure of the human THIK-1 K2P K^+ channel reveals a lower Y gate regulated by lipids and anesthetics” (Nature Structural & Molecular Biology, 2025).

The test has as its target T1, THIK-1 I139A (Homo sapiens, UniProt Q9HB14, I139A).
T1 construct: expressed in transfected cells; host or cells: Xenopus oocytes (mRNA injection)
T1 sequence (Q9HB14 1-408 I139A): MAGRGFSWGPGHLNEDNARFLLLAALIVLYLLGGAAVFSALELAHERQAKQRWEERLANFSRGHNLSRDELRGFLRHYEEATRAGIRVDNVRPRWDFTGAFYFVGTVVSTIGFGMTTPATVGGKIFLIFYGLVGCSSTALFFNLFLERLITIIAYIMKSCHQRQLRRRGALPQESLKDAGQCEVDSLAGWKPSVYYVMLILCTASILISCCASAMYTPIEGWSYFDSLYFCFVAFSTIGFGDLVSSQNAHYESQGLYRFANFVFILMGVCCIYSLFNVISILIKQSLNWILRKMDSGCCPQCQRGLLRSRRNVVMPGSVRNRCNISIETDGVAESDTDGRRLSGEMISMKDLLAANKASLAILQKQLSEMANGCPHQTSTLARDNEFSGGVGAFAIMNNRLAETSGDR
The test can be described thus: Inside-out excised patch recordings, oocytes, THIK-1 I139A mutant. The class given is cell-based. The settings on record: for τ of 1 mM TPenA block / τ of 1 mM TPenA release: I139A; for Normalized currents: THIK-1 I139A. An excerpt:
Human K2P13.1 THIK-1 (GenBank accession number: NM_022054) and human K2P12.1 THIK-2 (NM_022055.1) were used in this study. For functional expression studies, the respective K^+ channel subtype coding sequences were subcloned into the oocyte expression vector pSGEM or the dual-purpose expression vector pFAW[41] and verified by sequencing. All mutant channels were obtained by site-directed mutagenesis and verified by sequencing. To increase surface expression and macroscopic currents, measurements of THIK-2 channels used a mutated ER retention motif, (R11A R12A R14A R15A R16A; THIK-2*)[20]. Vector DNA was linearized with NheI or MluI, and mRNA was synthesized in vitro using the SP6 or T7 AmpliCap Max High Yield Message Maker Kit (Cellscript, USA) or HiScribe T7 ARCA mRNA Kit (New England Biolabs).
Two-electrode voltage–clamp (TEVC) studies were performed in Xenopus oocytes. All animal use conformed to the Guide for the Care and Use of Laboratory Animals (NIH Publication 85–23), and all experiments using Xenopus toads were approved by the local ethics panels. Oocytes were stored at 17 °C in ND96 recording solution composed of (in mM): 96 NaCl, 2 KCl, 1.8 CaCl2, 1 MgCl2, 5 HEPES (pH 7.5 adjusted with NaOH and HCl), supplemented with Na-pyruvate (275 mg L^–1), theophylline (90 mg L^–1) and gentamicin (50 mg L^–1). Oocytes were injected with 1 ng mRNA for WT or mutant channels, and were incubated for 24–48 h at 17 °C. Two-electrode voltage clamp recordings were then performed as previously described[42],[43]. For macroscopic patch–clamp measurements, oocytes were obtained as described above incubated at 17 °C in a solution containing (mM): 54 NaCl, 30 KCl, 2.4 NaHCO3, 0.82 MgSO4 ×7 H2O, 0.41 CaCl2, 0.33 Ca(NO3)2 ×4 H2O and 7.5 TRIS (pH 7.4 adjusted with NaOH and HCl) for 1–4 days before use. Excised patch recordings in inside-out configuration conditions were performed at room temperature. Patch pipettes were made from thick-walled borosilicate glass GB 200TF-8P (Science Products), had resistances of 0.2–0.5 MΩ (tip diameter, 10–25 µm) and filled with a pipette solution (in mM): 120 KCl, 10 HEPES and 3.6 CaCl2 (pH 7.4 adjusted with KOH and HCl). Intracellular bath solutions and compounds were applied to the cytoplasmic side of excised patches for the various K^+ channels through a gravity flow multi-barrel pipette system. The intracellular solution had the following composition (in mM): 120 KCl, 10 HEPES, 2 EGTA and 1 pyrophosphate (pH adjusted with KOH and HCl). Currents were recorded with an EPC10 amplifier (HEKA Electronics) and sampled at 10 kHz or higher, with filtering set to 3 kHz (–3 dB) or higher, as appropriate for sampling rate. For measurements of GPCR activation, whole-cell currents were recorded for THIK-1 in transiently transfected HEK-293 cells. Cells were stimulated by a ramp protocol between −100 and +60 mV (holding potential, −80 mV). The pipette solution was composed of (in mM): 140 KCl, 2 MgCl2, 1 CaCl2, 2.5 EGTA and 10 HEPES (pH 7.3 adjusted with KOH and HCl). The extracellular bath solution had the following composition (in mM): 135 NaCl, 5 KCl, 2 MgCl2, 2 CaCl2, 10 glucose and 10 HEPES pH (pH 7.3 adjusted with NaOH and HCl). Oxotremorine M (Oxo-M) was added to extracellular bath solution to obtain the final concentration. Single-channel currents were recorded with an Axopatch 200B amplifier through a Digidata 1440A digitizer (Molecular Devices). Data were filtered at 2 kHz and recorded at a 200-kHz sampling rate with the program Clampex (Molecular Devices). Pipette solution and bath solution for cell-attached recordings contained (in mM): 140 KCl, 2 MgCl2, 1 CaCl2 and 10 HEPES (pH 7.4 adjusted with KOH and HCl). For inside-out recordings, the bath solution contained (in mM): 140 KCl, 2 MgCl2, 1 CaCl2 and 10 HEPES (pH 7.2 adjusted with KOH and HCl). All experiments were conducted at room temperature. […]

Each structure is given as a SMILES string. Values joined by “and” are separate entries in the source; they are usually repeats but may differ in a detail not shown here. Identical values can stand only once.

With `CCCCC[N+](CCCCC)(CCCCC)CCCCC` [TPenA, tetrapentylammonium], the “τ of 1 mM TPenA block” value was 0.150 s and 0.087 s and 0.338 s and 0.121 s and 0.235 s and 0.061 s and 0.088 s and 0.065 s and 0.063 s and 0.057 s and 0.086 s and 0.068 s and 0.117 s and 0.145 s and 0.215 s and 0.129 s and 0.101 s and 0.147 s and 0.113 s and 0.270 s and 0.151 s and 0.198 s and 0.133 s (individual recordings); 0.13 s (mean). The “τ of 1 mM TPenA release” value is, setting by setting: (individual recordings) 1.320 s and 0.719 s and 0.852 s and 0.882 s and 0.634 s and 0.828 s and 0.460 s and 0.897 s and 0.583 s and 1.759 s and 0.311 s and 0.642 s and 0.558 s and 0.489 s and 0.435 s and 0.476 s and 0.409 s and 0.565 s and 0.635 s and 0.683 s and 0.647 s and 0.518 s and 0.501 s; (mean) 0.68 s. Further, the Normalized currents by setting is: (TPenA 0.1 µM) 1.00; (TPenA 1 µM) 0.93; (TPenA 4 µM) 0.83; (TPenA 15.6 µM) 0.67; (TPenA 62.5 µM) 0.44; (TPenA 250 µM) 0.22. For the same molecule, the Normalized currents is, setting by setting: (TPenA 1000 µM) 0.11; (TPenA 4000 µM) 0.08.
